Data published in patent publication US20190225650A1, “PEPTIDOMIMETIC MACROCYCLES AND USE THEREOF IN REGULATING HIF1ALPHA” (AILERON THERAPEUTICS, INC., priority 2013, published 2019).
Bridge positions count the residues as written; N and C are the ends. Square brackets hold non-standard residues; d marks the D form. Peptide text beside a SMILES is read from it. R8 = C=CCCCCCC[C@@](C)(N)C(=O)O; S5 = C=CCCC[C@](C)(N)C(=O)O; Nle = CCCC[C@H](N)C(=O)O

Assays:
HRE-bla ME-180 cells [1] = assay: Reporter gene assay (HRE-bla ME-180 HIF reporter, GeneBLAzer); assay type: cell-based, human; conditions: for EC50: 24 hour normoxia
Summary of the method: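 A FRET β-lactamase readout of HIF transcription was used. After compound treatment in 0.3% DMSO/media under normoxic conditions, 20 μl of 6× LiveBLAzer-FRET B/G (CCF4-AM) substrate was added. Plates sat 3 hr at room temperature in the dark and were read at 409 Ex/460Em and 409Ex/530Em on a Synergy 2. Inhibition was compared against DMSO vehicle controls, with chetomin as positive control.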

HRE-bla ME-180 cells [2] = assay: Cell proliferation assay (viability, MTT, 1% FBS); assay type: cell-based, human
Description: The human cervical cell line HRE-Bla ME-180 was obtained from Invitrogen. 2×10^4 ME-180 cells were plated in 96-well plates (costar) in Opti-MEM plus 1% FBS (Invitrogen). After 4 hr, cells were pretreated with chetomin, peptide or 0.5% DMSO (final concentration in media) vehicle control for 16 hr under normoxia (21% O2); then incubation continued under normoxia or hypoxia (1% O2) using a hypoxia incubator (Thermo Forma model). Viable cell numbers were quantified using CellTiter 96 Non-Radioactive Cell Proliferation kit (Promega, G4100). The results are presented in the column “Viability 1% FBS AVG (MTT V3-24 hr Normoxia) (μM)” of Table 6.

SMILES | 18 h Avg % max inhibition at top conc (HIF Rptr-24 hrs normoxia) (μM) (HRE-bla ME-180 cells [1]) | EC50 (HRE-bla ME-180 cells [1]) [µM] | Viability 1% FBS AVG (MTT V3-24 hr Normoxia) (μM) (HRE-bla ME-180 cells [2])
CCCC[C@H](NC(=O)[C@H](C)NC(=O)[C@@H](NC(=O)[C@@H](NC(=O)[C@H](CC(C)C)NC(=O)[C@]1(C)CCCC=CCCC[C@](C)(NC(=O)[C@H](CCC(=O)O)NC(=O)[C@H](CC(=O)O)NC(=O)[C@@H](NC(=O)[C@H](Cc2ccccc2)NC(C)=O)[C@@H](C)CC)C(=O)N[C@@H](C(C)C)C(=O)N[C@@H](CC(C)C)C(=O)N[C@@H](CCCC)C(=O)N1)C(C)C)[C@@H](C)CC)C(=O)N[C@@H](C)C(=O)N[C@@H](CC(C)C)C(=O)N[C@@H](CO)C(=O)N[C@@H](CO)C(=O)N[C@H](C(N)=O)[C@@H](C)CC [SP-129] (Ac-FIDE[S5]VL[Nle][S5]LVIA[Nle]ALSSI-NH2; staple 5-9) | ++ (≤10 but <25: ++) | > 30 | ++++ (≥30: ++++)
CCCC[C@H](NC(=O)[C@H](Cc1ccccc1)NC(=O)[C@@H](NC(=O)[C@H](C)NC(=O)[C@H](CCC(N)=O)NC(=O)[C@H](CC(=O)O)NC(=O)[C@@H](NC(=O)[C@H](Cc1ccccc1)NC(C)=O)[C@@H](C)CC)C(C)C)C(=O)N[C@@]1(C)CCCC=CCCC[C@@](C)(C(=O)N[C@@H](CCCC)C(=O)N[C@@H](C)C(=O)N[C@@H](CC(C)C)C(=O)N[C@@H](CC(C)C)C(N)=O)NC(=O)[C@H]([C@@H](C)CC)NC(=O)[C@H](C(C)C)NC(=O)[C@H](Cc2c[nH]cn2)NC1=O [SP-254] (Ac-FIDQAVF[Nle][S5]HVI[S5][Nle]ALL-NH2; staple 9-13) | +++ (≤25 but <50: +++) | ≤ 5 | + (<5: +)
CCCC[C@H](NC(=O)[C@H](CCC(=O)O)NC(=O)[C@@H](NC(=O)[C@@H](NC(=O)[C@H](CC(C)C)NC(=O)[C@]1(C)CCCC=CCCC[C@](C)(NC(=O)[C@H](CCC(=O)O)NC(=O)[C@H](CC(=O)O)NC(=O)[C@@H](NC(=O)[C@H](CC(N)=O)NC(=O)[C@@H](NC(=O)[C@H](CCC(N)=O)NC(=O)[C@H](CC(=O)O)NC(=O)[C@H](CC(C)C)NC(=O)[C@H](C)NC(=O)[C@H](CCCNC(=N)N)NC(=O)[C@]2(C)CCCC=CCCC[C@](C)(NC(=O)[C@H](CCC(N)=O)NC(=O)[C@H](CC(C)C)NC(=O)[C@H](CC(C)C)NC(C)=O)C(=O)N[C@@H](CCC(=O)O)C(=O)N[C@@H](CCC(=O)O)C(=O)N[C@@H](CC(C)C)C(=O)N2)C(C)C)[C@@H](C)CC)C(=O)N[C@@H](C(C)C)C(=O)N[C@@H](CC(C)C)C(=O)N[C@@H](CCCC)C(=O)N1)C(C)C)[C@@H](C)CC)C(=O)NCC(N)=O [SP-325] (Ac-LLQ[S5]EEL[S5]RALDQVNIDE[S5]VL[Nle][S5]LVIE[Nle]G-NH2; staple 4-8, 19-23) | + (<10: +) | > 30 | ++++ (≥30: ++++)
CCCC[C@H](NC(=O)[C@H](CC(C)C)NC(=O)[C@@H](NC(=O)[C@H](C)NC(=O)[C@H](CCC(N)=O)NC(=O)[C@H](CC(=O)O)NC(=O)[C@@H](NC(=O)[C@H](Cc1ccccc1)NC(C)=O)[C@@H](C)CC)C(C)C)C(=O)N[C@@]1(C)CCCC=CCCC[C@@](C)(C(=O)N[C@@H](CCCC)C(=O)N[C@@H](C)C(=O)N[C@@H](CC(C)C)C(=O)N[C@@H](CC(N)=O)C(=O)N[C@@H](CCCNC(=N)N)C(=O)N[C@H](C(N)=O)[C@@H](C)CC)NC(=O)[C@H]([C@@H](C)CC)NC(=O)[C@H](C(C)C)NC(=O)[C@H](CC(C)C)NC1=O [SP-273] (Ac-FIDQAVL[Nle][S5]LVI[S5][Nle]ALNRI-NH2; staple 9-13) | +++ (≤25 but <50: +++) | > 30 | ++++ (≥30: ++++)
CC[C@H](C)[C@H](NC(=O)[C@H](CCCNC(=N)N)NC(=O)[C@H](CC(=O)O)NC(=O)[C@H](CC(C)C)NC(=O)[C@H](C)NC(=O)[C@H](CCSC)NC(=O)[C@H](CCC(=O)O)NC(=O)[C@]1(C)CCCC=CCCCCCC[C@@](C)(NC(=O)[C@H](CCC(=O)O)NC(=O)[C@H](CC(=O)O)NC(=O)[C@@H](NC(=O)[C@H](Cc2ccccc2)NC(C)=O)[C@@H](C)CC)C(=O)N[C@@H](C(C)C)C(=O)N[C@@H](CC(C)C)C(=O)N[C@@H](CCSC)C(=O)N[C@@H](CO)C(=O)N[C@@H](CC(C)C)C(=O)N[C@@H](C(C)C)C(=O)N1)C(N)=O [SP-175] (Ac-FIDE[R8]VLMSLV[S5]EMALDRI-NH2; staple 5-12) | ++ (≤10 but <25: ++) | > 30 | ++++ (≥30: ++++)
